According to the NIST ThermoML archive (doi:10.1016/j.tca.2013.05.015):

Experiment: mn = molality of the nth substance listed, in mol/kg
Conditions: 101 kPa, Liquid; for speed of sound: Sing-around technique in a fixed-path interferometer; for mass density: Vibrating tube method

CCCCCCCC[N+](C)(CCCCCCCC)CCCCCCCC.O=S(=O)([N-]S(=O)(=O)C(F)(F)F)C(F)(F)F + CCOC(C)=O
Conditions	mass density, 298.15 K [kg/m3]	mass density, 303.15 K [kg/m3]	mass density, 308.15 K [kg/m3]	mass density, 313.15 K [kg/m3]	speed of sound, 298.15 K [m/s]	speed of sound, 303.15 K [m/s]	speed of sound, 308.15 K [m/s]	speed of sound, 313.15 K [m/s]
m1 = 0.0193	897	891.1	885.3	878.9	1142	1119	1097	1074
m1 = 0.0434	900	894.1	888.3	882	1143	1120	1098	1076
m1 = 0.0692	903	897.1	891.3	885	1144	1122	1104	1077
m1 = 0.1377	910.7	904.8	899.1	892.9	1149	1125	1107	1080
m1 = 0.2691	923.8	918	912.4	906.5	1152	1128	1110	1083
m1 = 0.4006	935.1	929.4	924	918.3	1155	1131	1113	1086
m1 = 0.6119	950.4	944.9	939.7	934.5	1161	1140	1116	1092
m1 = 0.8299	963.4	958.3	953.3	948.4	1164	1146	1122	1098
m1 = 1.006	972.5	967.5	962.6	957.9	1170	1158	1128	1107
m1 = 1.28	984.5	979.7	974.8	970.2	1179	1161	1137	1113
m1 = 2.132	1011.1	1006.9	1001.9	997	1200	1170	1152	1131
m1 = 2.999	1029.3	1025.5	1019.5	1013.8	1206	1182	1161	1140

CCCCCCCC[N+](C)(CCCCCCCC)CCCCCCCC.O=S(=O)([N-]S(=O)(=O)C(F)(F)F)C(F)(F)F + CCO
Conditions	mass density, 298.15 K [kg/m3]	mass density, 303.15 K [kg/m3]	mass density, 308.15 K [kg/m3]	mass density, 313.15 K [kg/m3]	speed of sound, 298.15 K [m/s]	speed of sound, 303.15 K [m/s]	speed of sound, 308.15 K [m/s]	speed of sound, 313.15 K [m/s]
m1 = 0.022	787.5	783.3	778.6	774	1150	1129	1099	1087
m1 = 0.0465	790.5	786.3	781.5	777	1151	1130	1100	1088
m1 = 0.0692	793.7	789.3	784.3	779.5	1152	1131	1101	1089
m1 = 0.1378	805.5	801.2	797	792.6	1154	1134	1116	1104
m1 = 0.2691	825.5	821.5	816.6	812	1158	1140	1122	1110
m1 = 0.4006	844.7	840.6	836.4	832.3	1170	1149	1134	1116
m1 = 0.6112	868.3	864.6	860.4	856.3	1176	1158	1140	1125
m1 = 0.8299	883.8	879.9	875.8	866.2	1179	1161	1146	1131
m1 = 1.008	892.6	888.9	884.8	880.7	1182	1164	1149	1134
m1 = 1.28	910.2	906.5	902.4	898.3	1188	1170	1158	1146
